How the values were obtained:
Format in all cases: in vivo
[1] = test system: wheat (Triticum aestivum); test: Test A pre-/postemergence: wheat
Procedure, shortened: (§1)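 Compounds, formulated with surfactant in non-phytotoxic solvent, were applied as a directed soil spray preemergence and as postemergence sprays to 2–10 cm, one- to two-leaf seedlings grown in loam soil blended with sand; visual injury, 0–100, assessed ~10 days post-treatment against untreated controls.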

[2] = test system: ducksalad (Heteranthera limosa); test: Test C flooded paddy test: ducksalad; conditions: scale 0 to 100 (0 no effect, 100 complete control)
Procedure, shortened: (§2)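 Visual ratings from 0 (no effect) to 100 (complete control), made against untreated controls 13 to 15 days after treatment, express plant response. Compounds went directly into paddy water over 2-leaf stage plants in pots flooded to 3 cm.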

[3] = test system: morningglory (Ipomoea spp.); test: Test A pre-/postemergence: morningglory
Procedure, shortened: as §1

[4] = test system: barnyardgrass (Echinochloa crus-galli); test: Test C flooded paddy test: barnyardgrass; conditions: scale 0 to 100 (0 no effect, 100 complete control)
Procedure, shortened: as §2

[5] = test system: pigweed (Amaranthus retroflexus); test: Test A pre-/postemergence: pigweed
Procedure, shortened: as §1

[6] = test system: barnyardgrass (Echinochloa crus-galli); test: Test A pre-/postemergence: barnyardgrass
Procedure, shortened: as §1

[7] = test system: velvetleaf (Abutilon theophrasti); test: Test A pre-/postemergence: velvetleaf
Procedure, shortened: as §1

[8] = test system: foxtail, giant (giant foxtail, Setaria faberii); test: Test A pre-/postemergence: foxtail, giant
Procedure, shortened: as §1

rice (Oryza sativa) = test: Test C flooded paddy test: rice; conditions: scale 0 to 100 (0 no effect, 100 complete control)
Procedure, shortened: as §2

[9] = test system: crabgrass, large (large crabgrass, Digitaria sanguinalis); test: Test A pre-/postemergence: crabgrass, large
Procedure, shortened: as §1

[10] = test system: sedge, umbrella (small-flower umbrella sedge, Cyperus difformis); test: Test C flooded paddy test: sedge, umbrella; conditions: scale 0 to 100 (0 no effect, 100 complete control)
Procedure, shortened: as §2

corn (Zea mays) = test: Test A pre-/postemergence: corn
Procedure, shortened: as §1

[11] = Postemergence, 125 g ai/ha, 0 to 100 scale, 0 is no effect, 100 is complete control
[12] = Postemergence, 500 g ai/ha, visual rating on 0 to 100 scale (0 no effect, 100 complete control), approximately ten days
[13] = Preemergence, 125 g ai/ha, 0 to 100 scale where 0 is no effect and 100 is complete control
[14] = Preemergence, 500 g ai/ha, 0 to 100 scale (0 no effect, 100 complete control)
[15] = Flood (flooded paddy test), 125 g ai/ha, visual rating after 13 to 15 days
[16] = Flood (flooded paddy test), 250 g ai/ha, visual rating after 13 to 15 days
[17] = Postemergence, 1000 g ai/ha, visual rating on 0 to 100 scale (0 no effect, 100 complete control), approximately ten days
[18] = Preemergence, 1000 g ai/ha, 0 to 100 scale, 0 is no effect, 100 is complete control
[19] = Preemergence, 500 g ai/ha, 0 to 100 scale, 0 is no effect, 100 is complete control
[20] = Preemergence, 125 g ai/ha, 0 to 100 scale (0 no effect, 100 complete control)

Cc1nn(-c2ccc(F)cc2)nc1Oc1cc(C(F)(F)F)nn1C [Compound 126]
30: Plant response rating, Morningglory [3, 14] | Plant response rating, Barnyardgrass [4, 15] | Plant response rating, Sedge, Umbrella ([10]; Flood, 31 g ai/ha) | Corn plant response rating (corn (Zea mays); [12])
40: Plant response rating, Barnyardgrass [4, 16] | Velvetleaf plant response rating [7, 11] | Plant response rating, Velvetleaf [7, 14] | Plant response rating, Sedge, Umbrella ([10]; Flood, 62 g ai/ha)
0: Plant response rating, Wheat [1, 13] | Plant response rating, Wheat [1, 14] | Plant response rating, Ducksalad ([2]; Flood, 31 g ai/ha) | Plant response rating, Ducksalad ([2]; Flood, 62 g ai/ha) | Plant response rating, Barnyardgrass ([4]; Flood, 31 g ai/ha) | Plant response rating, Barnyardgrass ([4]; Flood, 62 g ai/ha) | Plant response rating, Rice (rice (Oryza sativa); Flood, 31 g ai/ha) | Plant response rating, Rice (rice (Oryza sativa); Flood, 62 g ai/ha) | Plant response rating, Corn (corn (Zea mays); [13])
60: Foxtail, Giant plant response rating [8, 11]
65: Plant response rating, Ducksalad [2, 16]
20: Wheat plant response rating [1, 12] | Plant response rating, Ducksalad [2, 15] | Barnyardgrass plant response rating [6, 11] | Plant response rating, Rice (rice (Oryza sativa); [16]) | Corn plant response rating (corn (Zea mays); [11]) | Plant response rating, Corn (corn (Zea mays); [14])
90: Foxtail, Giant plant response rating [8, 12] | Plant response rating, Foxtail, Giant [8, 14] | Crabgrass, Large plant response rating [9, 11] | Crabgrass, Large plant response rating [9, 12]
75: Plant response rating, Sedge, Umbrella [10, 15]
80: Morningglory plant response rating [3, 12] | Plant response rating, Barnyardgrass [6, 14] | Velvetleaf plant response rating [7, 12] | Plant response rating, Sedge, Umbrella [10, 16]
70: Morningglory plant response rating [3, 11] | Barnyardgrass plant response rating [6, 12] | Plant response rating, Barnyardgrass [6, 13] | Plant response rating, Foxtail, Giant [8, 13]
100: Pigweed plant response rating [5, 11] | Pigweed plant response rating [5, 12] | Plant response rating, Pigweed [5, 13] | Plant response rating, Pigweed [5, 14] | Plant response rating, Crabgrass, Large [9, 13] | Plant response rating, Crabgrass, Large [9, 14]
10: Wheat plant response rating [1, 11] | Plant response rating, Morningglory [3, 13] | Plant response rating, Velvetleaf [7, 13] | Plant response rating, Rice (rice (Oryza sativa); [15])

CCc1nn(-c2ccc(C(F)(F)F)cc2)nc1Cn1cnc(C(F)(F)F)n1 [Compound 130]
20: Plant response rating, Ducksalad [2, 16] | Velvetleaf plant response rating [7, 18]
100: Morningglory plant response rating [3, 17] | Pigweed plant response rating [5, 17] | Velvetleaf plant response rating [7, 17]
30: Wheat plant response rating [1, 17] | Plant response rating, Sedge, Umbrella ([10]; Flood, 62 g ai/ha) | Corn plant response rating (corn (Zea mays); [17])
75: Plant response rating, Sedge, Umbrella [10, 16]
40: Morningglory plant response rating [3, 18]
15: Plant response rating, Barnyardgrass [4, 16] | Plant response rating, Rice (rice (Oryza sativa); [16])
90: Pigweed plant response rating [5, 18] | Foxtail, Giant plant response rating [8, 18] | Crabgrass, Large plant response rating [9, 17] | Crabgrass, Large plant response rating [9, 18]
0: Plant response rating, Ducksalad ([2]; Flood, 62 g ai/ha) | Plant response rating, Barnyardgrass ([4]; Flood, 62 g ai/ha) | Plant response rating, Rice (rice (Oryza sativa); Flood, 62 g ai/ha) | Corn plant response rating (corn (Zea mays); [18])
80: Foxtail, Giant plant response rating [8, 17]
10: Wheat plant response rating [1, 18]
50: Barnyardgrass plant response rating [6, 17] | Barnyardgrass plant response rating [6, 18]

Cc1nn(-c2ccc(C(F)(F)F)cc2)nc1Cn1cnc(C(F)(F)F)n1 [Compound 132]
30: Wheat plant response rating [1, 17] | Corn plant response rating (corn (Zea mays); [17])
100: Morningglory plant response rating [3, 17] | Pigweed plant response rating [5, 17] | Pigweed plant response rating [5, 18] | Foxtail, Giant plant response rating [8, 18] | Crabgrass, Large plant response rating [9, 18]
80: Barnyardgrass plant response rating [6, 17]
0: Wheat plant response rating [1, 18] | Plant response rating, Ducksalad ([2]; Flood, 62 g ai/ha) | Plant response rating, Barnyardgrass [4, 16] | Plant response rating, Barnyardgrass ([4]; Flood, 62 g ai/ha) | Plant response rating, Rice (rice (Oryza sativa); [16]) | Plant response rating, Rice (rice (Oryza sativa); Flood, 62 g ai/ha) | Plant response rating, Sedge, Umbrella ([10]; Flood, 62 g ai/ha) | Corn plant response rating (corn (Zea mays); [18])
90: Barnyardgrass plant response rating [6, 18] | Velvetleaf plant response rating [7, 17] | Foxtail, Giant plant response rating [8, 17] | Crabgrass, Large plant response rating [9, 17]
60: Morningglory plant response rating [3, 18] | Velvetleaf plant response rating [7, 18]
65: Plant response rating, Sedge, Umbrella [10, 16]
20: Plant response rating, Ducksalad [2, 16]

Cc1nn(-c2ccc(C(F)(F)F)cn2)nc1C(=O)c1cccc(C(F)(F)F)c1 [Compound 107]
15: Plant response rating, Barnyardgrass ([4]; Flood, 62 g ai/ha)
50: Velvetleaf plant response rating [7, 12]
40: Wheat plant response rating [1, 12] | Plant response rating, Ducksalad [2, 16] | Velvetleaf plant response rating [7, 11] | Foxtail, Giant plant response rating [8, 11] | Plant response rating, Sedge, Umbrella ([10]; Flood, 62 g ai/ha)
80: Morningglory plant response rating [3, 12] | Plant response rating, Barnyardgrass [6, 19] | Plant response rating, Sedge, Umbrella [10, 16]
90: Pigweed plant response rating [5, 11] | Foxtail, Giant plant response rating [8, 12] | Plant response rating, Foxtail, Giant [8, 13] | Crabgrass, Large plant response rating [9, 12]
100: Pigweed plant response rating [5, 12] | Plant response rating, Pigweed [5, 19] | Plant response rating, Foxtail, Giant [8, 19] | Plant response rating, Crabgrass, Large [9, 20] | Plant response rating, Crabgrass, Large [9, 19]
70: Morningglory plant response rating [3, 11] | Plant response rating, Pigweed [5, 13]
20: Wheat plant response rating [1, 11] | Plant response rating, Ducksalad [2, 15] | Plant response rating, Morningglory [3, 13] | Plant response rating, Barnyardgrass [4, 15] | Corn plant response rating (corn (Zea mays); [11])
0: Plant response rating, Wheat [1, 13] | Plant response rating, Wheat [1, 19] | Plant response rating, Ducksalad ([2]; Flood, 31 g ai/ha) | Plant response rating, Ducksalad ([2]; Flood, 62 g ai/ha) | Plant response rating, Barnyardgrass ([4]; Flood, 31 g ai/ha) | Plant response rating, Rice (rice (Oryza sativa); [15]) | Plant response rating, Rice (rice (Oryza sativa); Flood, 31 g ai/ha) | Plant response rating, Rice (rice (Oryza sativa); Flood, 62 g ai/ha) | Plant response rating, Sedge, Umbrella ([10]; Flood, 31 g ai/ha) | Plant response rating, Corn (corn (Zea mays); [20])
10: Plant response rating, Velvetleaf [7, 13] | Plant response rating, Velvetleaf [7, 19] | Plant response rating, Corn (corn (Zea mays); [19])
30: Plant response rating, Morningglory [3, 19] | Barnyardgrass plant response rating [6, 11] | Plant response rating, Barnyardgrass [6, 20] | Corn plant response rating (corn (Zea mays); [12])
60: Barnyardgrass plant response rating [6, 12] | Crabgrass, Large plant response rating [9, 11] | Plant response rating, Sedge, Umbrella [10, 15]
25: Plant response rating, Barnyardgrass [4, 16] | Plant response rating, Rice (rice (Oryza sativa); [16])

— patent US9302999B2, “Substituted triazoles as herbicides” (E. I. DU PONT DE NEMOURS AND COMPANY, priority 2012, dated 2016)
